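How tested: cells in 96-well plates exposed to compound for 48 hours at five concentrations. GI50 marks 50% less growth. TGI marks complete inhibition of growth.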
Assays:
Test in all cases: NCI anticancer screen, dose series, 48 h; in the data active = GI50 below about 0.43 µM; inactive = the rest
NCI-H226 lung = test system: NCI-H226 lung
ACHN renal = test system: ACHN renal
EKVX NSCLC = test system: EKVX NSCLC
NCI-H23 lung = test system: NCI-H23 lung
M19-MEL melanoma = test system: M19-MEL melanoma
OVCAR-3 ovarian = test system: OVCAR-3 ovarian
MOLT-4 leukemia = test system: MOLT-4 leukemia
NCI-H460 lung = test system: NCI-H460 lung
HT29 colon = test system: HT29 colon
HCC-2998 colon = test system: HCC-2998 colon
DLD-1 colon = test system: DLD-1 colon
SK-MEL-2 melanoma = test system: SK-MEL-2 melanoma
COLO 205 colon = test system: COLO 205 colon
SN12C renal = test system: SN12C renal
DMS 114 small cell lung = test system: DMS 114 small cell lung
CAKI-1 renal = test system: CAKI-1 renal
CCRF-CEM leukemia = test system: CCRF-CEM leukemia
HCT-116 colon = test system: HCT-116 colon
SK-MEL-28 melanoma = test system: SK-MEL-28 melanoma
A549 NSCLC = test system: A549 NSCLC
OVCAR-4 ovarian = test system: OVCAR-4 ovarian
SF-295 CNS = test system: SF-295 CNS
SNB-75 CNS = test system: SNB-75 CNS
OVCAR-5 ovarian = test system: OVCAR-5 ovarian
SK-MEL-5 melanoma = test system: SK-MEL-5 melanoma
HL-60(TB) leukemia = test system: HL-60(TB) leukemia
RXF 393 renal = test system: RXF 393 renal
SNB-78 CNS = test system: SNB-78 CNS
LXFL 529 NSCLC = test system: LXFL 529 NSCLC
UO-31 renal = test system: UO-31 renal
K-562 leukemia = test system: K-562 leukemia
LOX IMVI melanoma = test system: LOX IMVI melanoma
A498 renal = test system: A498 renal
SF-268 CNS = test system: SF-268 CNS
786-0 renal = test system: 786-0 renal
KM12 colon = test system: KM12 colon
TK-10 renal = test system: TK-10 renal
HCT-15 colon = test system: HCT-15 colon
XF 498 CNS = test system: XF 498 CNS
NCI-H522 lung = test system: NCI-H522 lung
SW-620 colon = test system: SW-620 colon
U251 CNS = test system: U251 CNS
RPMI-8226 leukemia = test system: RPMI-8226 leukemia
SNB-19 CNS = test system: SNB-19 CNS
DMS 273 small cell lung = test system: DMS 273 small cell lung
SK-OV-3 ovarian = test system: SK-OV-3 ovarian
KM20L2 colon = test system: KM20L2 colon
UACC-257 melanoma = test system: UACC-257 melanoma
IGROV1 ovarian = test system: IGROV1 ovarian
HOP-92 NSCLC = test system: HOP-92 NSCLC
M14 melanoma = test system: M14 melanoma
UACC-62 melanoma = test system: UACC-62 melanoma
SR leukemia = test system: SR leukemia
OVCAR-8 ovarian = test system: OVCAR-8 ovarian

O=c1oc2c(O)c(O)cc3c(=O)oc4c(O)c(O)cc1c4c23
inactive: GI50 (M19-MEL melanoma) > 100 µM | GI50 (MOLT-4 leukemia) > 100 µM | GI50 (HT29 colon) > 100 µM | GI50 (HCC-2998 colon) > 100 µM | GI50 (DLD-1 colon) > 100 µM | GI50 (COLO 205 colon) > 100 µM | GI50 (CCRF-CEM leukemia) > 100 µM | GI50 (SK-MEL-28 melanoma) > 100 µM | GI50 (SF-295 CNS) > 100 µM | GI50 (OVCAR-5 ovarian) > 100 µM | GI50 (SK-MEL-5 melanoma) > 100 µM | GI50 (HL-60(TB) leukemia) > 100 µM | GI50 (RXF 393 renal) > 100 µM | GI50 (SNB-78 CNS) > 100 µM | GI50 (K-562 leukemia) > 100 µM | GI50 (KM12 colon) > 100 µM | GI50 (SW-620 colon) > 100 µM | GI50 (RPMI-8226 leukemia) > 100 µM | GI50 (DMS 273 small cell lung) > 100 µM | GI50 (UACC-257 melanoma) > 100 µM
> 100 µM: TGI (ACHN renal) | TGI (EKVX NSCLC) | TGI (NCI-H23 lung) | TGI (M19-MEL melanoma) | TGI (MOLT-4 leukemia) | TGI (NCI-H460 lung) | TGI (HT29 colon) | TGI (HCC-2998 colon) | TGI (DLD-1 colon) | TGI (SK-MEL-2 melanoma) | TGI (COLO 205 colon) | TGI (SN12C renal) | TGI (DMS 114 small cell lung) | TGI (CCRF-CEM leukemia) | TGI (HCT-116 colon) | TGI (SK-MEL-28 melanoma) | TGI (A549 NSCLC) | TGI (OVCAR-4 ovarian) | TGI (SF-295 CNS) | TGI (OVCAR-5 ovarian) | TGI (SK-MEL-5 melanoma) | TGI (HL-60(TB) leukemia) | TGI (RXF 393 renal) | TGI (SNB-78 CNS) | TGI (LXFL 529 NSCLC) | TGI (UO-31 renal) | TGI (K-562 leukemia) | TGI (LOX IMVI melanoma) | TGI (A498 renal) | TGI (SF-268 CNS) | TGI (KM12 colon) | TGI (TK-10 renal) | TGI (HCT-15 colon) | TGI (XF 498 CNS) | TGI (SW-620 colon) | TGI (RPMI-8226 leukemia) | TGI (DMS 273 small cell lung) | TGI (SK-OV-3 ovarian) | TGI (KM20L2 colon) | TGI (UACC-257 melanoma) | TGI (IGROV1 ovarian) | TGI (M14 melanoma) | TGI (UACC-62 melanoma) | TGI (SR leukemia)
57.3 µM: TGI (SNB-19 CNS)
82.2 µM: TGI (OVCAR-3 ovarian)
99 µM: TGI (HOP-92 NSCLC)
57.4 µM: TGI (NCI-H226 lung)
90.3 µM: TGI (SNB-75 CNS)
88.7 µM: TGI (OVCAR-8 ovarian)
43.1 µM: TGI (NCI-H522 lung)
71.6 µM: TGI (786-0 renal)
79 µM: TGI (U251 CNS)
29.5 µM: TGI (CAKI-1 renal)

— PubChem BioAssay (NCI)
